How the values were obtained:
PRL-3 = target: T1, PRL-3 (Homo sapiens, UniProt O75365); test: In vitro PTPase assay, recombinant PRL-3; type: biochemical; details: DiFMUP, comparable conditions
T1 construct: cDNAs of human PRL-1, PRL-2 and PRL-3 coding region were derived by RT-PCR from H9 cells; made in house; host or cells: DH5a bacteria (E. coli)
Source text: Sodium stibogluconate, suramin, sodium orth ovanadate and GST fusion protein of SHP-1 have been described previously (Pathak et al., J. Imumol. 167, 3391 (2001)). Meglumine antimonate was obtained from Aventis. cDNAs of human PRL-1, PRL-2 and PRL-3 coding region were derived by RT-PCR from H9 cells (Safai, et al., Lancet 1, 1438 (1984)) and inserted in frame into the pGEX vector. cDNA of PRL-1R86 was generated by recombinant DNA technique using PRL-1 cDNA as template following established procedures (Jiao, et al., Mol. Cell. Biol. 16, 6985 (1996)). GST fusion proteins of the PRL phosphatases were prepared from DH5a bacteria transformed with the pGEX fusion protein constructs as described previously (Yi, et al., Mol. Cell. Biol. 12, 836 (1992)). cDNAs encoding the PRLs tagged at the N-termini with the Flag epitope (Castrucci, et al., J. Virol. 66, 4647 (1992)) were generated via recombinant DNA technique, sequenced to confirm their identities and cloned into the pBabepuro vector (Yang, et al., Blood 91, 3746 (1998)). Anti-Flag monoclonal antibody (M2, Sigma) was purchased from a commercial source. A synthetic phosphotyrosine peptide (Arg-Arg-Leu-Ile-Glu-Asp-Ala-Gle-Tyr-Ala-Ala-Arg-Gly (SEQ ID NO: 3), wherein the tyrosine is phosphorylated; UBI) and DiFMUP (6, 8-difluoro-4-methylumbelliferyl phosphate, Molecular Probes) were purchased as substrates for PTPase assays.
In vitro PTPase assays were used to determine the effects of compounds on recombinant PTPases, following established procedures using a synthetic phosphotyrosine peptide or DiFMUP as the substrate (Pathak et al., J. Imumol. 167, 3391 (2001)). Briefly, individual PTPases (0.1 μg/reaction) in 50 μL of PTPase buffer (50 mM Tris, pH 7.4) were incubated at 22° C. for 10 minutes or as indicated in the absence or presence of inhibitory compounds. Substrates (0.2 mM phosphotyrosine peptide) were then added and allowed to react at 22° C. for 18 hrs. PTPase activity of individual reactions was measured by adding 100 μL of malachite green solution (UBI) and then quantifying the amounts of free phosphate cleaved by the PTPase from the peptide substrate by spectrometry (OD660 nm). PTPase assays using DiFMUP as a substrate were conducted following a previously described procedure (Matter, et al., Biochem. Biophys. Res. Comm. 283, 1061 (2001)). Relative PTPase activities were calculated based on the formula: (PTPase activity in the presence of an inhibitory compound/PTPase activity in the absence of the compound)×100%. To assess the reversibility of PTPase inhibition, GST fusion proteins of the PTPases bound on glutathione beads (Pharmacia) were pre-incubated with cold Tris buffer (50 mM Tris, pH 7.0) or Tris buffer containing the inhibitor at 4° C. for 30 minutes. The beads were then washed three times in cold Tris buffer or not washed prior to subjecting to in vitro PTPase assays.

SHP-1 = target: T2, SHP-1 (Mus musculus, UniProt P29351); test: In vitro PTPase assay, GST/SHP-1 fusion protein; type: biochemical
T2 construct: made in house
Description: In vitro PTPase activities were measured using the commercial protein tyrosine phosphatase assay kit (Upstate Biotechnology, Inc. (“UBI”)) following established procedure known to one of skill in the art. […] 100 μl of Malachite Green solution was added and incubated for 5 minutes, and the absorbance at 660 nm was measured after 5 minutes.
The beads were then either subjected to in vitro PTPase assays or washed 3 times in Tris buffer then subjected to in vitro PTPase assays.
Briefly, individual PTPases (0.1 μg/reaction) in 50 μL of PTPase buffer (50 mM Tris, pH 7.4) were incubated at 22° C. for 10 minutes or as indicated in the absence or presence of inhibitory compounds. […] […] […] Relative PTPase activities were calculated based on the formula: (PTPase activity in the presence of an inhibitory compound/PTPase activity in the absence of the compound)×100%. To assess the reversibility of PTPase inhibition, GST fusion proteins of the PTPases bound on glutathione beads (Pharmacia) were pre-incubated with cold Tris buffer (50 mM Tris, pH 7.0) or Tris buffer containing the inhibitor at 4° C. for 30 minutes. The beads were then washed three times in cold Tris buffer or not washed prior to subjecting to in vitro PTPase assays.

MKP1 = target: T3, MKP1 (Homo sapiens, UniProt P28562); test: In vitro PTPase assay, GST/MKP1 fusion protein; type: biochemical
T3 construct: a pGEX construct containing the coding region of MKP1 cDNA derived by RT-PCR; made in house; host or cells: DH5a bacteria (E. coli)
T3 sequence (P28562 1-367): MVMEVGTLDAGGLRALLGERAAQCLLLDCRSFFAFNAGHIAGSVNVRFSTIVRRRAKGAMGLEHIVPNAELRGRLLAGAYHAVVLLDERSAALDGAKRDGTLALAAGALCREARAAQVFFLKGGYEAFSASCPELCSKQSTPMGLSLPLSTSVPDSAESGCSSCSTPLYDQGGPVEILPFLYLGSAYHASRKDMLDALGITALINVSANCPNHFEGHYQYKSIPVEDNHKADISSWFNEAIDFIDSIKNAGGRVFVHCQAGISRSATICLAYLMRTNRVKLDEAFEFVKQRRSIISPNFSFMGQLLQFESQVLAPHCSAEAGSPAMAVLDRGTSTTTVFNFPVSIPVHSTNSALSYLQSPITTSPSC

GSTm8 = test: In vitro PTPase assay, GSTm8; type: biochemical; details: 3-4 μg/ml or 10-100 μg/ml
PTP1B = target: T4, PTP1B (Homo sapiens, UniProt P18031); test: In vitro PTPase assay, GST/PTP1B fusion protein; type: biochemical; details: 1-1,000 μg/ml
T4 construct: purchased Upstate Biotechnology Inc. (Lake Placid, N.Y.)
Description: In vitro PTPase activities were measured using the commercial protein tyrosine phosphatase assay kit (Upstate Biotechnology, Inc. (“UBI”)) following established procedure known to one of skill in the art. This assay measures the in vitro dephosphorylation of a synthetic phosphotyrosine peptide of the sequence Arg-Arg-Leu-Ile-Glu-Asp-Ala-Gle-Tyr-Ala-Ala-Arg-Gly, wherein the tyrosine is phosphorylated (SEQ ID NO: 3). Briefly, 0.01 μg of GST/PTPase fusion proteins was incubated in 50 μl of Tris buffer (10 mM Tris, pH 7.4) containing different concentrations of inhibitors or chemicals (0-1,000 μg/ml) at 22° C. for 10 minutes, followed by addition of 0.2 mM of the phosphotyrosine peptide and incubation at 22° C. for 18 hours. 100 μl of Malachite Green solution was added and incubated for 5 minutes, and the absorbance at 660 nm was measured after 5 minutes.

Baf3 cells = test: Baf3 cell proliferation assay; type: cell-based, murine
Description: The murine hematopoietic cell line Baf3 was maintained in RPMI 1640 medium supplemented with 10% fetal calf serum (FCS) and murine IL-3 (20 units/ml) as described previously in Damen et al., J. Biol. Chem. 270, 23402 (1995). Human myeloid cell line TF-1 was maintained in RPMI 1640 supplemented with 10% FCS and 40 ng/ml of recombinant human GM-CSF as described previously in Thomassen et al., Clin. Immunol. 95, 85 (2000). For cell proliferation assays, cells were washed in 10% FCS medium twice, resuspended in 10% FCS medium, incubated at 37° C. for 16 hours, and then cultured at 37° C. in 10% FCS medium containing various amounts of cytokines, sodium stibogluconate, or potassium antimonyl tartrate for 3-6 days as indicated. The cell numbers in proliferation assays were determined by an MTT assay or by microscopic cell counting as indicated.

Jak2/Stat5 = test: IL-3-induced Jak2/Stat5 tyrosine phosphorylation in Baf3 cells; type: cell-based, murine
Description: For induction of cellular protein phosphorylation by sodium stibogluconate or pervanadate, Baf3 cells were incubated in 0.1% FCS-RPMI 1640 medium at 37° C. for 16 hours. The cells were then washed twice in RPMI 1640 medium and incubated with sodium stibogluconate or pervanandate (0.1 mM) for various times prior to termination by lysing cells in cold lysis buffer (50 mM Tris, pH 7.4; 150 mM NaCl; 0.2 mM Na3VO4; 20 mm NaF; 1% Nonidet P-40; 2 mM PMSF; 20 μg/ml of Aprotinin and 1 mM of sodium molybdic acid). To determine the effect of sodium stibogluconate or potassium antimonyl tartrate on IL-3-induced Jak/Stat phosphorylation, Baf3 cells were deprived of the growth factor for 16 hours in 0.1% FCS RPMI 1640 medium and then incubated with or without sodium stibogluconate or potassium antimonyl tartrate for 10 minutes. IL-3 was next added to the cell suspension and incubated for various times. The Cells were then harvested and lysed in cold lysis buffer at 4° C. for 45 minutes. Total cell lysates (TCL) were separated in SDS-PAGE gels, blotted onto nitrocellulose membrane (Schleicher & Schuell), probed with specific antibodies and detected using an enhanced chemiluminescence kit (ECL, Amersham, Arlington Heights, Ill.).

T2 sequence (P29351 whole entry, the tested form may be a part): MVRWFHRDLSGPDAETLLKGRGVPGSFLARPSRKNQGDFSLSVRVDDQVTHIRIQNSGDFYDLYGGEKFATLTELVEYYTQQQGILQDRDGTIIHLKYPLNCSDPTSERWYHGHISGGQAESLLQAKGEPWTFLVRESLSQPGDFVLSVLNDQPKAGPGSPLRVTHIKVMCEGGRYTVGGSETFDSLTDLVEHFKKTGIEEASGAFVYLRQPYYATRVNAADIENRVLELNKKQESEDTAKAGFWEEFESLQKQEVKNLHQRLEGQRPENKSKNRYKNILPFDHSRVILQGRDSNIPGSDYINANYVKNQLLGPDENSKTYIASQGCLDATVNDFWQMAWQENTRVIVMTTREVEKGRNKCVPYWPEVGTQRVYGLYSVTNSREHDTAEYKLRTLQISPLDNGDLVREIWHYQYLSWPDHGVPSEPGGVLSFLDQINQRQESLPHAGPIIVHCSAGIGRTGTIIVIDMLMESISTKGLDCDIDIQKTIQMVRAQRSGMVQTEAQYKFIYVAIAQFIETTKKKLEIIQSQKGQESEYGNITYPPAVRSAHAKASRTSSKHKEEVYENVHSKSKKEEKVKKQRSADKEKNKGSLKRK
T1 sequence (O75365 whole entry): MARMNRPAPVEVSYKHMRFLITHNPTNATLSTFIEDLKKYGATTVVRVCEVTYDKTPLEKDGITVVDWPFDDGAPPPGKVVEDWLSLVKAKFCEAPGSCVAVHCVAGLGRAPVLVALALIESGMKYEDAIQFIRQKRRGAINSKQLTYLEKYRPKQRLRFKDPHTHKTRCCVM
T4 sequence (P18031 whole entry, species assumed, the tested form may be a part): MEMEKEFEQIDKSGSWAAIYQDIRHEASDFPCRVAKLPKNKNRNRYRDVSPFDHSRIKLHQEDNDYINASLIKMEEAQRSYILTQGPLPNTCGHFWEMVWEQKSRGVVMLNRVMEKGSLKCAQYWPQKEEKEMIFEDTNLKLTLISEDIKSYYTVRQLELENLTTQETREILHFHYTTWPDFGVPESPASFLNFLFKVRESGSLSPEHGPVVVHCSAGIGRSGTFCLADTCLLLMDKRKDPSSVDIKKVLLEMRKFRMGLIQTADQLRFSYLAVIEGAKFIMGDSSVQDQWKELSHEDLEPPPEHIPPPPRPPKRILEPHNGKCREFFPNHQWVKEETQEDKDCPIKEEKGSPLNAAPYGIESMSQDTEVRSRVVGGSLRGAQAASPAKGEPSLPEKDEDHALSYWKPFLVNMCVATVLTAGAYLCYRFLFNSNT

## Cc1ccc(C(=O)Nc2ccc(S(=O)(=O)O)c3cc(S(=O)(=O)O)cc(S(=O)(=O)O)c23)cc1NC(=O)c1cccc(NC(=O)Nc2cccc(C(=O)Nc3cc(C(=O)Nc4ccc(S(=O)(=O)O)c5cc(S(=O)(=O)O)cc(S(=O)(=O)O)c45)ccc3C)c2)c1 [Suramin]
PRL-3
  inhibition of PRL-3 with DiFMUP substrate: less effective
SHP-1; comparable conditions
  inhibition of SHP-1 compared with sodium stibogluconate: less effective
SHP-1; pre-incubated at 4° C. 30 minutes, beads washed 3 times
  reversibility of SHP-1 inhibition by washing: almost completely removed by the washing process

## c1ccc([C@H]2CN3CCSC3=N2)cc1 [levamisole]
MKP1
  inhibition of MKP1: substantial inhibition
SHP-1; 3-4 μg/ml or 10-100 μg/ml
  inhibitory activity against SHP-1: no obvious inhibitory activity
GSTm8
  inhibitory activity against GSTm8: no obvious inhibitory activity

## O.O.O.O=C([O-])[C@H]([O-])[C@@H]([O-])C(=O)[O-].O=C([O-])[C@H]([O-])[C@@H]([O-])C(=O)[O-].[K+].[K+].[Sb+3].[Sb+3] [potassium antimonyl tartrate]
PTP1B
  inhibition of PTP1B: no detectable inhibition
Baf3 cells
  toxicity against Baf3 cells: marked toxicity
Baf3 cells; IL-3 10 units/ml, three days
  IL-3-induced proliferation of Baf3 cells: failed to enhance
Jak2/Stat5
  IL-3-induced Stat5 phosphorylation: failed to enhance
SHP-1; 1-1,000 μg/ml
  inhibition of SHP-1: no detectable inhibition

## [Na+].[Na+].[Na+].[O]=[V]([O-])([O-])[O-] [sodium orthovanadate]
PRL-3
  inhibition of PRL-3 with DiFMUP substrate: less effective

Reference: US20030161893A1, “PTPase inhibitors and methods of using the same” (priority 2001, published 2003)
